Consider 13 molecules from PubChem BioAssay (NCI).

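Each compound was tested at five concentrations against cells in 96-well plates for 48 hours. GI50 is the concentration that inhibits growth by half. At the TGI there is no net growth.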

Test systems include HCT-116 colon; SK-MEL-5 melanoma; OVCAR-4 ovarian; EKVX NSCLC; DU-145 prostate; HT29 colon; LOX IMVI melanoma; NCI/ADR-RES ovarian; NCI-H23 lung; OVCAR-3 ovarian.
Assay in all cases: NCI anticancer screen, dose series, 48 h

For the molecule `CCN1C(=O)N(CC)C2C1NN=c1s/c(=C\c3cccc(F)c3)c(=O)n12` (configuration not stated), the GI50 was 131 nM in the experiment on HCT-116 colon; 131 nM in the experiment with SK-MEL-5 melanoma; 5.37 µM with OVCAR-4 ovarian; 0.657 µM in the experiment with EKVX NSCLC; 389 nM in the experiment on DU-145 prostate; 85.9 nM in the experiment on HT29 colon. Further, the GI50 was 110 nM with LOX IMVI melanoma, 59 nM in the experiment with NCI/ADR-RES ovarian, 522 nM in the experiment on NCI-H23 lung and 170 nM with OVCAR-3 ovarian. Further, the TGI with HCT-116 colon was greater than 100 µM; in the experiment on SK-MEL-5 melanoma, 2.33 µM; in the experiment with OVCAR-4 ovarian, greater than 100 µM; in the experiment on EKVX NSCLC, greater than 100 µM; in the experiment with DU-145 prostate it was greater than 100 µM; with HT29 colon it was greater than 100 µM. Besides, the TGI in the experiment on LOX IMVI melanoma, in the experiment on NCI/ADR-RES ovarian, in the experiment with NCI-H23 lung and with OVCAR-3 ovarian was greater than 100 µM throughout.

On to `Clc1nc(Cl)c2ncn(CC3(Cn4cnc5c(Cl)nc(Cl)nc54)COC3)c2n1`, for which the GI50 in the experiment with HCT-116 colon is 182 nM; with SK-MEL-5 melanoma it was 259 nM; in the experiment with OVCAR-4 ovarian, 0.276 µM; in the experiment with EKVX NSCLC it was 0.821 µM; with DU-145 prostate, 183 nM; with HT29 colon it was 226 nM. In addition, the GI50 is 180 nM in the experiment on LOX IMVI melanoma, 257 nM with NCI/ADR-RES ovarian, 194 nM with NCI-H23 lung and 202 nM in the experiment on OVCAR-3 ovarian. Moreover, the TGI in the experiment on HCT-116 colon is 0.35 µM; in the experiment with SK-MEL-5 melanoma, 0.855 µM; in the experiment with OVCAR-4 ovarian, 0.763 µM; with EKVX NSCLC it was 2.43 µM; with DU-145 prostate, 0.335 µM; in the experiment on HT29 colon it was greater than 100 µM. Moreover, the TGI turned out to be 0.349 µM with LOX IMVI melanoma, 0.573 µM in the experiment with NCI/ADR-RES ovarian, 0.392 µM with NCI-H23 lung and 0.36 µM with OVCAR-3 ovarian.

Take `O=C1C(Cl)=C(Nc2cccc(Cl)c2)C(=O)N1Cc1ccc(Cl)cc1`: the GI50 was 442 nM with HCT-116 colon; 660 nM in the experiment with SK-MEL-5 melanoma; 4.68 µM with OVCAR-4 ovarian; 6.78 µM with EKVX NSCLC; 2720 nM in the experiment with DU-145 prostate; 758 nM in the experiment with HT29 colon. For the same molecule, the GI50 in the experiment on LOX IMVI melanoma is 408 nM; in the experiment with NCI/ADR-RES ovarian, 298 nM; in the experiment on NCI-H23 lung it was 378 nM; in the experiment with OVCAR-3 ovarian it was 784 nM. The TGI is 6.53 µM with HCT-116 colon; 4.32 µM in the experiment with SK-MEL-5 melanoma; greater than 64.2 µM with OVCAR-4 ovarian; 23.7 µM in the experiment on EKVX NSCLC; 11.4 µM with DU-145 prostate; 31.3 µM with HT29 colon. The TGI with LOX IMVI melanoma came out at 8.49 µM; with NCI/ADR-RES ovarian it was 3.28 µM; with NCI-H23 lung, 2.12 µM; in the experiment on OVCAR-3 ovarian it was 6.24 µM.

Turning to `COc1ncnc2c(-c3ccccc3)cn(COCc3ccccc3)c12`, the GI50 in the experiment with HCT-116 colon is 2670 nM; with SK-MEL-5 melanoma, 1130 nM; in the experiment with OVCAR-4 ovarian, 2.26 µM; with EKVX NSCLC, 2.37 µM; in the experiment on DU-145 prostate, 10400 nM; with HT29 colon, 3490 nM. The GI50 in the experiment with LOX IMVI melanoma is 3270 nM; in the experiment with NCI/ADR-RES ovarian it was 3170 nM; in the experiment with NCI-H23 lung, 3020 nM; in the experiment on OVCAR-3 ovarian, 5090 nM. The TGI with HCT-116 colon is 23 µM; with SK-MEL-5 melanoma it was 2.34 µM; in the experiment with OVCAR-4 ovarian, 9.5 µM; in the experiment with EKVX NSCLC, greater than 100 µM; in the experiment with DU-145 prostate it was greater than 100 µM; in the experiment with HT29 colon it was greater than 100 µM. For the same molecule, the TGI was 14.7 µM in the experiment with LOX IMVI melanoma, 19.1 µM in the experiment with NCI/ADR-RES ovarian, greater than 100 µM in the experiment with NCI-H23 lung and 20.1 µM in the experiment with OVCAR-3 ovarian.

With `O=C(c1ccccc1)c1ccccc1-c1ccccc1`, the GI50 is 3170 nM with HCT-116 colon; 3200 nM with SK-MEL-5 melanoma; 18.7 µM in the experiment on OVCAR-4 ovarian; 4.22 µM in the experiment on EKVX NSCLC; 3360 nM in the experiment on DU-145 prostate; 986 nM in the experiment with HT29 colon. Moreover, the GI50 in the experiment on LOX IMVI melanoma is 5960 nM; in the experiment with NCI/ADR-RES ovarian it was 1000 nM; in the experiment on NCI-H23 lung it was 4460 nM; with OVCAR-3 ovarian, 1720 nM. The TGI was 30.1 µM in the experiment on HCT-116 colon; 12.5 µM with SK-MEL-5 melanoma; greater than 100 µM in the experiment on OVCAR-4 ovarian; greater than 100 µM in the experiment with EKVX NSCLC; 38.2 µM with DU-145 prostate; 14.3 µM with HT29 colon. Also, the TGI is greater than 100 µM with LOX IMVI melanoma, 8.02 µM in the experiment with NCI/ADR-RES ovarian, greater than 100 µM in the experiment with NCI-H23 lung and 4.55 µM in the experiment on OVCAR-3 ovarian.

Regarding `CCN(Cc1cc(Nc2nc(C)cn3c(-c4cn[nH]c4)cnc23)sn1)C(C)(C)CO`, the GI50 in the experiment on HCT-116 colon is 12.7 nM; in the experiment with SK-MEL-5 melanoma it was 222 nM; with OVCAR-4 ovarian, less than 0.0108 µM; in the experiment on EKVX NSCLC it was 0.578 µM; in the experiment on DU-145 prostate, 82.2 nM; with HT29 colon, 72.5 nM. The GI50 was less than 12.5 nM in the experiment with LOX IMVI melanoma, 1120 nM in the experiment on NCI/ADR-RES ovarian, 191 nM in the experiment with NCI-H23 lung and 48.1 nM with OVCAR-3 ovarian. Further, the TGI was 2.3 µM in the experiment on HCT-116 colon; 2.08 µM in the experiment with SK-MEL-5 melanoma; 8.38 µM in the experiment with OVCAR-4 ovarian; 15.2 µM with EKVX NSCLC; 6.58 µM with DU-145 prostate; 0.812 µM with HT29 colon. In addition, the TGI was 0.199 µM in the experiment on LOX IMVI melanoma, greater than 44.7 µM in the experiment on NCI/ADR-RES ovarian, 7.09 µM with NCI-H23 lung and 2.68 µM with OVCAR-3 ovarian.

In the case of `C=C(C)[C@@H]1CC[C@]2(C)CC[C@]3(C)[C@H](CC[C@@H]4[C@@]5(C)CC[C@H](O)C(C)(C)[C@@H]5CC[C@]43C)[C@@H]12`, the TGI in the experiment with HCT-116 colon, in the experiment with SK-MEL-5 melanoma, in the experiment with OVCAR-4 ovarian, with EKVX NSCLC, in the experiment on DU-145 prostate and with HT29 colon was greater than 100 µM each time. Besides, the TGI was 36.3 µM in the experiment on LOX IMVI melanoma, greater than 100 µM in the experiment on NCI/ADR-RES ovarian, greater than 100 µM in the experiment on NCI-H23 lung and greater than 100 µM with OVCAR-3 ovarian.

`C[C@]12CC[C@@H]3c4ccc(OC(=O)N(CCCl)CCCl)cc4CC[C@H]3[C@@H]1CC[C@@H]2O`: the GI50 is 1600 nM with HCT-116 colon; 1950 nM in the experiment on SK-MEL-5 melanoma; 4.36 µM with OVCAR-4 ovarian; 3.26 µM in the experiment on EKVX NSCLC; 2530 nM in the experiment with DU-145 prostate; 2410 nM in the experiment on HT29 colon. Besides, the GI50 was 2430 nM in the experiment on LOX IMVI melanoma, 1920 nM in the experiment on NCI/ADR-RES ovarian, 2790 nM with NCI-H23 lung and 691 nM in the experiment on OVCAR-3 ovarian. The TGI in the experiment on HCT-116 colon amounted to 10.8 µM; in the experiment with SK-MEL-5 melanoma, 9.27 µM; in the experiment on OVCAR-4 ovarian, 39.5 µM; in the experiment on DU-145 prostate, 8.63 µM; in the experiment on LOX IMVI melanoma, 14.3 µM; with NCI/ADR-RES ovarian, 8.81 µM. Besides, the TGI in the experiment on OVCAR-3 ovarian is 4.56 µM.

Consider `CC(C)Cn1cnc2c(SCc3ccc(Cl)cc3Cl)nc(N)nc21`, for which the TGI in the experiment with HCT-116 colon is greater than 100 µM; in the experiment with SK-MEL-5 melanoma it was 22.8 µM; in the experiment with OVCAR-4 ovarian, greater than 100 µM; in the experiment on EKVX NSCLC it was greater than 100 µM; in the experiment on DU-145 prostate, greater than 100 µM; in the experiment with HT29 colon, greater than 100 µM. Further, the TGI in the experiment with LOX IMVI melanoma is 38.3 µM; in the experiment on NCI/ADR-RES ovarian it was greater than 100 µM; with NCI-H23 lung it was greater than 100 µM; in the experiment with OVCAR-3 ovarian it was greater than 100 µM.

Take `CCOC(=O)N1CCN(/[N+]([O-])=N/Oc2ccc([N+](=O)[O-])cc2[N+](=O)[O-])CC1`: the GI50 is 929 nM in the experiment on HCT-116 colon; 2770 nM in the experiment on SK-MEL-5 melanoma; 0.438 µM in the experiment on OVCAR-4 ovarian; 12.6 µM in the experiment on EKVX NSCLC; 4730 nM in the experiment with DU-145 prostate; 322 nM in the experiment with HT29 colon. The GI50 in the experiment on LOX IMVI melanoma is 258 nM; in the experiment with NCI/ADR-RES ovarian, 3880 nM; in the experiment on NCI-H23 lung, 1820 nM; in the experiment with OVCAR-3 ovarian, 542 nM. The TGI with HCT-116 colon turned out to be 3.66 µM; in the experiment on SK-MEL-5 melanoma, 12.1 µM; with OVCAR-4 ovarian it was 1.78 µM; in the experiment on EKVX NSCLC, 32.6 µM; in the experiment with DU-145 prostate, 19.2 µM; with HT29 colon it was 15.7 µM. Further, the TGI in the experiment with LOX IMVI melanoma is greater than 100 µM; in the experiment with NCI/ADR-RES ovarian, 14.9 µM; in the experiment with NCI-H23 lung, 3.69 µM; with OVCAR-3 ovarian, 1.82 µM.

`CNC(=O)Nc1nc2ccc([N+](=O)[O-])cc2[nH]1`: the TGI in the experiment with HCT-116 colon, in the experiment on SK-MEL-5 melanoma, with OVCAR-4 ovarian, with EKVX NSCLC, in the experiment with DU-145 prostate and in the experiment with HT29 colon was greater than 100 µM each time. Moreover, the TGI in the experiment with LOX IMVI melanoma, in the experiment on NCI/ADR-RES ovarian, with NCI-H23 lung and with OVCAR-3 ovarian was greater than 100 µM throughout.

As to `O=C(Oc1cccc(F)c1OC(=O)c1cccc(O)c1)c1cccc(O)c1`, the GI50 with HCT-116 colon was 20200 nM; in the experiment with SK-MEL-5 melanoma, 6900 nM; in the experiment with OVCAR-4 ovarian it was 15.2 µM; in the experiment with EKVX NSCLC it was 58.7 µM; with DU-145 prostate, 44700 nM; in the experiment with HT29 colon it was 41800 nM. The GI50 is 13000 nM in the experiment on LOX IMVI melanoma, 10300 nM in the experiment on NCI/ADR-RES ovarian, 26900 nM in the experiment with NCI-H23 lung and 4820 nM in the experiment on OVCAR-3 ovarian. Further, the TGI in the experiment on HCT-116 colon, in the experiment with SK-MEL-5 melanoma, in the experiment on OVCAR-4 ovarian, in the experiment on EKVX NSCLC, with DU-145 prostate and in the experiment on HT29 colon was greater than 100 µM in each case. The TGI is greater than 100 µM with LOX IMVI melanoma, 77.6 µM in the experiment on NCI/ADR-RES ovarian, greater than 100 µM in the experiment with NCI-H23 lung and 45.7 µM with OVCAR-3 ovarian.

Take `CN(/N=C/c1cccc2cccnc12)c1ccc([N+](=O)[O-])cc1[N+](=O)[O-]`: the TGI in the experiment on HCT-116 colon was greater than 82.1 µM; with SK-MEL-5 melanoma it was greater than 100 µM; in the experiment with OVCAR-4 ovarian it was greater than 70.3 µM; in the experiment on EKVX NSCLC, greater than 95 µM; in the experiment on DU-145 prostate it was greater than 100 µM; in the experiment on HT29 colon it was greater than 100 µM. The TGI was greater than 100 µM in the experiment on LOX IMVI melanoma, greater than 100 µM in the experiment on NCI/ADR-RES ovarian, 50.1 µM in the experiment with NCI-H23 lung and 39.8 µM in the experiment with OVCAR-3 ovarian.
